Experiment: Dynamic PET imaging with [^18F]OXD-2314 in baboons
Type: in vivo
Details: for Cerebellum SUV / Cortex SUV / Striatum SUV / Whole Brain SUV: PET time-activity curve, Figure S18; for whole brain peak uptake: n = 1
Procedure: Dynamic PET imaging was performed in a rhesus macaque (macaca mulatta) monkey following the injection of [^18F]OXD-2314 at baseline (104.9 MBq, n = 1) and was repeated in a second [^18F]OXD-2314 study (115.8 MBq, n = 1) where a displacing dose of unlabeled OXD-2314 (0.5 mg/kg) was administered 10 min after [^18F]OXD-2314 injection to verify the absence of specific binding in NHP brain. Venous blood samples were drawn to characterize the metabolic fate of [^18F]OXD-2314 in the macaque. Dynamic [^18F]OXD-2314 PET imaging was also performed in a male (106.6 MBq, n = 1) and a female (115.8 MBq, n = 1) baboon (papio anubis), and venous blood samples were drawn in both baboons to characterize potential effects of sex on radiometabolism. Bilateral regions of interest were defined on 5–8 contiguous axial image planes for the lateral temporal cerebral cortex, cerebellum, striatum, and whole brain, which were used to sample dynamic [^18F]OXD-2314 PET images to determine the time-varying radioactivity concentration expressed in SUV units. [^18F]OXD-2314 readily entered macaque brain (whole brain peak ~2.2 SUV at ~2 min) and distributed uniformly throughout cortical and subcortical grey matter regions (Fig. 5A). […] Radiometabolite analysis of macaque venous blood identified only one, polar radiometabolite, which increased from 37% at 10 min to 77% at 90 min post-injection and was not likely brain penetrant (Figs. S19, S20).
The rate of uptake and clearance of [^18F]OXD-2314 in the brains of a male and a female baboon were compared (Fig. 6A). Initial whole brain uptake was rapid in both baboons, with peak uptake achieved in ~2 min with an SUV of ~2.8 in the male baboon and an SUV of ~1.9 in the female baboon. […] It is not known whether the higher initial brain uptake of [^18F]OXD-2314 observed in a male baboon is due to sex differences, normal physiologic variability, or the additional variability introduced by the effects of anesthesia. No evidence of elevated uptake or retention in the baboon striatum following [^18F]OXD-2314 injection was observed (Fig. S16), a region where high levels of PSP and CBD pathology are expected. Therefore, the normal brain retention patterns of [^18F]OXD-2314 are unlikely to confound the detection of specific signal from PSP and CBD pathology in human subjects.
NHP imaging studies in a male (13 kg) macaca mulata monkey and male (25.7 kg) and female (14.2 kg) papio anubis baboons were carried out in accordance with the guidelines set forth by the Institutional Animal Care and Use Committee at the University of Pittsburgh. Additional details regarding the maintenance of an active environmental enrichment program for the housed NHPs are described in Supplemental Information. Dynamic [^18F]OXD-2314 PET imaging of the brains of the isoflurane anesthetized NHPs was performed using a Siemens Biograph mCT Flow 64-4 R PET/CT scanner ([…], maximum intrinsic spatial resolution of 4.3 mm FWHM[53]. Following a low-dose CT scan for attenuation correction of PET emission data, [^18F]OXD-2314 was injected intravenously and emission data were acquired in list-mode for a period of 90 min. Emission data were binned into a dynamic series of 32 frames (20 sec-10 min) and reconstructed using filtered back projection with Fourier rebinning (FORE + FBP) with standard corrections applied that included attenuation, scatter, electronics dead-time, and physical decay.

CO[C@H]1CCCN(c2ccc(-c3cc4cc(O)ccc4[nH]3)c([18F])n2)C1 [[^18F]OXD-2314]
Cerebellum SUV (Time 2.75 min): 3.523 SUV
Cortex SUV (Time 2.75 min): 3.036 SUV
Striatum SUV (Time 2.75 min): 3.616 SUV
Whole Brain SUV (Time 2.75 min): 2.828 SUV
Cerebellum SUV (Time 3.25 min): 3.2566 SUV
Cortex SUV (Time 3.25 min): 2.891 SUV
Striatum SUV (Time 3.25 min): 3.337 SUV
Whole Brain SUV (Time 3.25 min): 2.7269 SUV
Cerebellum SUV (Time 3.75 min): 3.5333 SUV
Cortex SUV (Time 3.75 min): 2.848 SUV
Striatum SUV (Time 3.75 min): 3.315 SUV
Whole Brain SUV (Time 3.75 min): 2.707 SUV
Cerebellum SUV (Time 4.5 min): 3.317 SUV
Cortex SUV (Time 4.5 min): 2.817 SUV
Striatum SUV (Time 4.5 min): 3.072 SUV
Whole Brain SUV (Time 4.5 min): 2.623 SUV
Cerebellum SUV (Time 5.5 min): 2.973 SUV
Cortex SUV (Time 5.5 min): 2.612 SUV
Striatum SUV (Time 5.5 min): 3.02 SUV
Whole Brain SUV (Time 5.5 min): 2.516 SUV
Cerebellum SUV (Time 6.5 min): 2.884 SUV
Cortex SUV (Time 6.5 min): 2.534 SUV
Striatum SUV (Time 6.5 min): 2.784 SUV
Whole Brain SUV (Time 6.5 min): 2.429 SUV
Cerebellum SUV (Time 8 min): 2.424 SUV
Cortex SUV (Time 8 min): 2.368 SUV
Striatum SUV (Time 8 min): 2.423 SUV
Whole Brain SUV (Time 8 min): 2.257 SUV
Cerebellum SUV (Time 10 min): 2.417 SUV
Cortex SUV (Time 10 min): 2.197 SUV
Striatum SUV (Time 10 min): 2.581 SUV
Whole Brain SUV (Time 10 min): 2.094 SUV
Cerebellum SUV (Time 12 min): 2.068 SUV
Cortex SUV (Time 12 min): 2.057 SUV
Striatum SUV (Time 12 min): 2.198 SUV
Whole Brain SUV (Time 12 min): 1.998 SUV
Cerebellum SUV (Time 14 min): 2.062 SUV
Cortex SUV (Time 14 min): 1.889 SUV
Striatum SUV (Time 14 min): 1.943 SUV
Whole Brain SUV (Time 14 min): 1.8928 SUV
Cerebellum SUV (Time 17.5 min): 1.827 SUV
Cortex SUV (Time 17.5 min): 1.768 SUV
Striatum SUV (Time 17.5 min): 1.893 SUV
Whole Brain SUV (Time 17.5 min): 1.748 SUV
Cerebellum SUV (Time 22.5 min): 1.519 SUV
Cortex SUV (Time 22.5 min): 1.5637 SUV
Striatum SUV (Time 22.5 min): 1.618 SUV
Whole Brain SUV (Time 22.5 min): 1.572 SUV
Cerebellum SUV (Time 27.5 min): 1.345 SUV
Cortex SUV (Time 27.5 min): 1.403 SUV
Striatum SUV (Time 27.5 min): 1.574 SUV
Whole Brain SUV (Time 27.5 min): 1.421 SUV
Cerebellum SUV (Time 32.5 min): 1.261 SUV
Cortex SUV (Time 32.5 min): 1.245 SUV
Striatum SUV (Time 32.5 min): 1.235 SUV
Whole Brain SUV (Time 32.5 min): 1.295 SUV
Cerebellum SUV (Time 37.5 min): 1.135 SUV
Cortex SUV (Time 37.5 min): 1.17 SUV
Striatum SUV (Time 37.5 min): 1.248 SUV
Whole Brain SUV (Time 37.5 min): 1.205 SUV
Cerebellum SUV (Time 42.5 min): 1.059 SUV
Cortex SUV (Time 42.5 min): 1.067 SUV
Striatum SUV (Time 42.5 min): 1.112 SUV
Whole Brain SUV (Time 42.5 min): 1.107 SUV
Cerebellum SUV (Time 47.5 min): 1.003 SUV
Cortex SUV (Time 47.5 min): 0.9766 SUV
Striatum SUV (Time 47.5 min): 0.9755 SUV
Whole Brain SUV (Time 47.5 min): 1.028 SUV
Cerebellum SUV (Time 52.5 min): 0.8116 SUV
Cortex SUV (Time 52.5 min): 0.9384 SUV
Striatum SUV (Time 52.5 min): 0.9527 SUV
Whole Brain SUV (Time 52.5 min): 0.9734 SUV
Cerebellum SUV (Time 57.5 min): 0.7605 SUV
Cortex SUV (Time 57.5 min): 0.8664 SUV
Striatum SUV (Time 57.5 min): 0.8933 SUV
Whole Brain SUV (Time 57.5 min): 0.9139 SUV
Cerebellum SUV (Time 62.5 min): 0.7211 SUV
Cortex SUV (Time 62.5 min): 0.8233 SUV
Striatum SUV (Time 62.5 min): 0.8081 SUV
Whole Brain SUV (Time 62.5 min): 0.8807 SUV
Cerebellum SUV (Time 67.5 min): 0.724 SUV
Cortex SUV (Time 67.5 min): 0.803 SUV
Striatum SUV (Time 67.5 min): 0.7461 SUV
Whole Brain SUV (Time 67.5 min): 0.8223 SUV
Cerebellum SUV (Time 72.5 min): 0.6837 SUV
Cortex SUV (Time 72.5 min): 0.7452 SUV
Striatum SUV (Time 72.5 min): 0.6547 SUV
Whole Brain SUV (Time 72.5 min): 0.7875 SUV
Cerebellum SUV (Time 77.5 min): 0.6351 SUV
Cortex SUV (Time 77.5 min): 0.7071 SUV
Striatum SUV (Time 77.5 min): 0.5968 SUV
Whole Brain SUV (Time 77.5 min): 0.7547 SUV
Cerebellum SUV (Time 82.5 min): 0.6873 SUV
Cortex SUV (Time 82.5 min): 0.6833 SUV
Striatum SUV (Time 82.5 min): 0.7378 SUV
Whole Brain SUV (Time 82.5 min): 0.7187 SUV
Cerebellum SUV (Time 87.5 min): 0.5841 SUV
Cortex SUV (Time 87.5 min): 0.6805 SUV
Striatum SUV (Time 87.5 min): 0.6765 SUV
Whole Brain SUV (Time 87.5 min): 0.6934 SUV
time to peak whole brain uptake (both baboons): ~ 2 min
2:90 min SUV ratio (female baboon): ~ 3.6
whole brain peak uptake (female baboon): ~ 1.9 SUV
2:90 min SUV ratio (male baboon): ~ 3.7
whole brain peak uptake (male baboon): ~ 2.8 SUV

Reference: article PMC11178805, “Ligand-based design of [^18F]OXD-2314 for PET imaging in non-Alzheimer’s disease tauopathies” (Nature Communications, 2024)
